The values below come from patent US6165984A, “Naringin and naringenin as inhibitors of acyl CoA-cholesterol-o-acyltransferase” (Korea Institute of Science & Technology, priority 1997, dated 2000).

Data set [1] concerns acyl CoA-cholesterol-o-acyltransferase (ACAT). The data set can be described thus: ACAT activity in liver microsomes of naringin- or naringenin-fed rats (Example 5). It is filed as in vivo, Sprague-Dawley rat. Particulars: liver microsomes of rats fed 0.1% compound in 1% cholesterol diet; for ACAT activity: control 806.2 ± 105.2; for % Inhibition on ACAT activity: vs control group. The source says: (§1) 30 four-week-old Sprague-Dawley rats (Taihan laboratory animal center, Korea) each weighing about 90 to 110 g were evenly divided into three dietary groups by a randomized block design. The rats of the three groups were fed with three different high-cholesterol diets, i.e., AIN-76 laboratory animal diet (ICN Biochemicals, Cleveland, Ohio, U.S.A.) containing 1% cholesterol (Control group), and 1% cholesterol plus 0.1% naringin or naringenin, respectively.
To determine the effects of naringin and naringenin feeding to rats on the activity of ACAT, microsomes were separated from the liver tissue to be used as an enzyme source.
First, the rats of the three groups prepared in Example 3 were sacrificed by decapitation and the livers were excised. 1 g each of the livers was homogenized in 5 ml of homogenization medium (0.1 M KH2 PO4, pH 7.4, 0.1 mM EDTA and 10 mM β-mercaptoethanol). The homogenate was centrifuged at 3,000×g for 10 min. at 4° C. and the supernatant thus obtained was centrifuged at 15,000×g for 15 min. at 4° C. to obtain a supernatant. The supernatant was put into an ultracentrifuge tube (Beckman) and centrifuged at 100,000×g for 1 hour at 4° C. to obtain microsomal pellets, which were then suspended in 3 ml of the homogenization medium and centrifuged at 100,000×g for 1 hour at 4° C. The pellets thus obtained were suspended in 1 ml of the homogenization medium. The concentration of proteins in the resulting suspension was determined by Lowry's method and then adjusted to 4 to 8 mg/ml. The resulting suspension was stored in a deep freezer (Biofreezer, Forma Scientific Inc.).
6.67 μl of 1 mg/ml cholesterol solution in acetone was mixed with 6 μl of 10% Triton WR-1339(Sigma Co.) in acetone and, then, acetone was removed from the mixture by evaporation using nitrogen gas. Distilled water was added to the resulting mixture in an amount to adjust the concentration of cholesterol to […].
To 10 μl of the resulting aqueous cholesterol solution were added 10 μl of 1 M KH2 PO4 (pH 7.4), 5 μl of 0.6 mM bovine serum albumin (BSA), 10 μl of microsome solution obtained in (Step 1) and 55 μl of distilled water (total 90 μl). The mixture was pre-incubated in a waterbath at 37° C. for 30 min.
10 μl of (1-^14 C) oleoyl-CoA solution (0.05 μCi, final concentration: 10 μM) was added to the pre-incubated mixture and the resulting mixture was incubated in a waterbath at 37° C. for 30 min. […]
200 μl of the resulting supernatant was put in a scintillation bottle and 4 ml of scintillation fluid (Lumac) was added thereto. The mixture was assayed for radioactivity with 1450 Microbeta liquid scintillation counter (Wallacoy, Finland). ACAT activity was calculated as picomoles of cholesteryl oleate synthesized per min. per mg protein (pmoles/min/mg protein).

The subject of the next data set is ICR mice. The data set can be described thus: Acute oral toxicity of naringin or naringenin in mice. As to conditions: for toxicity or mitogenicity: tests using mice. It is filed as in vivo, mouse. Here is the method:
7 to 8 week-old, specific pathogen-free ICR female mice (6 heads) each weighing about 25 to 29 g and male mice (6 heads) each weighing about 34 to 38 g were bred under a condition of temperature 22±1° C., moisture 55±5% and photoperiod 12L/12D. Fodder (Cheiljedang Co., mouse and rat fodder) and water were sterilized and fed to the mice.
Naringin or naringenin was dissolved in 0.5% Tween 80 to a concentration of 100 mg/ml, and the solution was orally administered to the mice in an amount of 0.2 ml per 20 g of mouse body weight. […] The weight changes of the mice were recorded every day to examine the effect of naringin or naringenin. Further, on the 10th day, the mice were sacrificed and the internal organs were visually examined.

Data set [2] can be described thus: Blood total cholesterol and triglyceride in cholesterol-fed rabbits (Example 6). It counts as in vivo, New Zealand White rabbit. Particulars: 1% cholesterol diet, 6 weeks, 1 mg/kg Lovastatin, 0.1% naringin or naringenin; for Triglyceride: control 56; for Total cholesterol: control 1143. Here is the method:
Blood samples were taken from the rats of the three dietary groups and plasma HDL fractions were separated therefrom by using HDL-cholesterol reagent (Sigma Chemical Co., Cat. No. 352-3) containing dextran-sulfate. Total cholesterol and HDL-cholesterol levels were determined by using Sigma Diagnostic Kit Cat. No. 352-100(Sigma Chemical Co., […] et al., Clin. Chem., 20, 470-475(1974)). Neutral lipid level was determined by using Sigma Diagnostic Kit Cat. No. 339-50(Bucolo, G. and David, H., Clin. Chem., 19, 476-482(1973)). The result is shown in Table III, wherein the total plasma cholesterol levels in naringin and naringenin-fed rat groups decreased by 32% and 18%, respectively, as compared with that of the control group. […] RC4 diet comprises 7.6% moisture, 22.8% crude protein, 2.8% crude fat, 8.8% crude ash, 14.4% crude cellulose and 43.6% soluble nitrogen-free substances. The rabbits were bred for 6 weeks while being allowed free access to the diets and water. Further, blood samples were taken from the rabbits and total cholesterol and triglyceride levels were determined in accordance with the same procedure in Example 4.

The conditions of data set [3]: literature; cited from earlier work.
A short description of data set [4]: Plasma total cholesterol, HDL-cholesterol and neutral lipid in rats on high-cholesterol diet (Example 4). It is filed as in vivo, Sprague-Dawley rat. As to conditions: 1% cholesterol diet plus 0.1% compound, six weeks; for HDL-C: control 22.2; for TG (triglyceride): control 99.2 ± 18.9; for Total-C (total plasma cholesterol): control 147.8 ± 34.8.
From the text: as §1
The effect of administering naringin or naringenin to rats on the plasma cholesterol and neutral lipid content was determined as follows.
Blood samples were taken from the rats of the three dietary groups and plasma HDL fractions were separated therefrom by using HDL-cholesterol reagent (Sigma Chemical Co., Cat. No. 352-3) containing dextran-sulfate. Total cholesterol and HDL-cholesterol levels were determined by using Sigma Diagnostic Kit Cat. No. 352-100(Sigma Chemical Co., U.S.A.) (Allain et al., Clin. Chem., 20, 470-475(1974)). Neutral lipid level was determined by using Sigma Diagnostic Kit Cat. No. 339-50(Bucolo, G. and David, H., Clin. Chem., 19, 476-482(1973)). The result is shown in Table III, wherein the total plasma cholesterol levels in naringin and naringenin-fed rat groups decreased by 32% and 18%, respectively, as compared with that of the control group.

For a further data set, the system named is liver function. As to conditions: in vivo.
Setting [5] is: single oral dose, 1,000 mg/kg, mice.

With `O=C1C[C@@H](c2ccc(O)cc2)Oc2cc(O)cc(O)c21` [naringenin], in data set [1], the ACAT activity was found to be 666.3 ± 65.3 pmole/min/mg protein and the “% Inhibition on ACAT activity” value worked out at 17.4%. Moreover, the “survival at day 10” value with ICR mice (setting [5]) was “All the mice were alive”. Besides, the weight loss entry in the data set with ICR mice (single oral dose, 1,000 mg/kg, mice, 10 day test period) is “no weight loss”. Moreover, in the data set on ICR mice (single oral dose, 1,000 mg/kg, mice, 10 days), the toxicity entry is “no toxicity”. For the same compound, the “pathological abnormality at autopsy” value in the data set on ICR mice (single oral dose, 1,000 mg/kg, mice, day 10) is given as “did not develop any pathological abnormality”. The toxicity or mitogenicity entry in the data set with ICR mice was “little toxicity or mitogenicity”. In data set [2], this compound showed a Triglyceride of 70 mg/dL and a Total cholesterol of 1350 mg/dL. The reported activities entry in data set [3] is “anti-cancer, anti-viral and cholesterol lowering activities”. Besides, in data set [4], the “decrease of total plasma cholesterol level compared with control group” value was determined as 18%, the HDL-C is 23.4 mg/dL, the “TG (triglyceride)” value was 103.4 ± 18.2 mg/dL and the “Total-C (total plasma cholesterol)” value was determined as 120.9 ± 25.9 mg/dL. In addition, the “adverse effects on the liver function” value with liver function was “no adverse effects on the liver function”.

`C[C@@H]1O[C@@H](O[C@H]2[C@H](Oc3cc(O)c4c(c3)O[C@H](c3ccc(O)cc3)CC4=O)O[C@H](CO)[C@@H](O)[C@@H]2O)[C@H](O)[C@H](O)[C@H]1O` [naringin, Naringin]: in data set [1], the ACAT activity is on record as 643.5 ± 80.7 pmole/min/mg protein and the “% Inhibition on ACAT activity” value was determined as 20.2%. Also, the “corresponding oral administration dose for a person weighing 50 kg” value in the data set with ICR mice (mouse, in vivo) is given as 50-100 g/kg body weight. Further, the “survival at day 10” value with ICR mice (setting [5]) is “All the mice were alive”. Also, the toxicity or mitogenicity result in the data set with ICR mice was “little toxicity or mitogenicity”. In data set [2], this compound gave a Triglyceride of 72 mg/dL and a Total cholesterol of 1367 mg/dL. Further, in data set [3], the reported activities result is “anti-cancer, anti-viral and cholesterol lowering activities”. Moreover, in data set [4], the “decrease of total plasma cholesterol level compared with control group” value was 32%, the HDL-C is 24.0 mg/dL, the “TG (triglyceride)” value amounted to 86.7 ± 14.6 mg/dL and the “Total-C (total plasma cholesterol)” value came to 100.8 ± 16.1 mg/dL. For the same compound, in the data set with liver function, the “adverse effects on the liver function” value was “no adverse effects on the liver function”.
